# In ChEMBL document CHEMBL1130875, “Conformationally constrained analogues of diacylglycerol (DAG). 14. Dissection of the roles of the sn-1 and sn-2 carbonyls in DAG mimetics by isopharmacophore replacement” (Bioorg Med Chem Lett, 1998):
# Target: Protein kinase C alpha type (Homo sapiens, UniProt P17252)
# Assay: Displacement of [20-3H]phorbol-12,13-dibutyrate from a recombinant PK-C alpha
row,Ki [nM],Structure (SMILES)
1,320,CCCCCCCCCCCCC/C=C1\CC(CO)(COC(C)=O)OS1(=O)=O (centres undefined)
2,1040,CCCCCCCCCCCCCC(=O)OCC1(CO)CCS(=O)(=O)O1 (centres undefined)
3,823,CCCCCCCCCCCCC/C=C1\CC(CO)(COS(C)(=O)=O)OC1=O (centres undefined)
4,90.7,CCCCCCCCCCCCCCS(=O)(=O)OCC1(CO)CCC(=O)O1 (centres undefined)
